This passage reports inhibition results from ChEMBL document CHEMBL2417551, “Structure-guided design of novel thiazolidine inhibitors of O-acetyl serine sulfhydrylase from Mycobacterium tuberculosis” (J Med Chem, 2013).

The test has as its target O-acetylserine sulfhydrylase (Mycobacterium tuberculosis) (UniProt P9WP55). The following applies: at 500 nM.
Description: Inhibition of Mycobacterium tuberculosis N-terminal His-6-tagged recombinant CysK1 expressed in Escherichia coli BL21 (DE3) at 500 nM after 20 mins by spectrophotometric analysis
In general, inhibition refers to the change of the read-out against control, counted positive when it falls. Read a high inhibition as a strong effect. In the case of `CCN1C(=O)/C(=C/c2ccc(C(F)(F)F)cc2)S/C1=N\c1cccc(C(=O)O)c1`, the inhibition stood at 50.8%.

As to `CCN1C(=O)/C(=C/c2ccc(O)cc2)S/C1=N\c1cccc(C(C)=O)c1`, the inhibition stood at 3.4%. On to `CCN1C(=O)/C(=C/c2ccc(OCC(=O)OC)cc2)S/C1=N\c1cccc(C(=O)O)c1`, for which the inhibition is 9.9%. For the molecule `CCN1C(=O)/C(=C/c2ccc(OCC(=O)OC)cc2)S/C1=N\c1cccc(C(C)=O)c1`, the inhibition amounted to 8.2%.

`CCN1C(=O)/C(=C/c2ccccc2Br)S/C1=N\c1cccc(C(=O)O)c1` yielded an inhibition of 54.1%.

The molecule `CCCCN1C(=O)/C(=C/c2ccc(OCC(=O)OC)cc2)S/C1=N\c1cccc(C(C)=O)c1` gave an inhibition of 0%.

`CCN1C(=O)/C(=C/c2cccc(C(F)(F)F)c2)S/C1=N\c1cccc(C(=O)O)c1` had an inhibition of 26%.

Molecule `COC(=O)COc1ccccc1/C=C1\S/C(=N\c2cccc(C(=O)O)c2)N(C(C)C)C1=O` yielded an inhibition of 55.7%. Next, `CCN1C(=O)/C(=C/c2ccc(OCc3ccccc3)cc2)S/C1=N\c1cccc(C(=O)O)c1`: 81.1%; `CCN1C(=O)/C(=C/c2cccc(C)c2)S/C1=N\c1cccc(C(=O)O)c1`: 38.5%; `CCN1C(=O)/C(=C/c2ccc(Br)cc2)S/C1=N\c1cccc(C(=O)O)c1`: 60.9%. Next, `CCN1C(=O)/C(=C/c2ccc(C(C)C)cc2)S/C1=N\c1cccc(C(=O)O)c1`: 49.6%. In the case of `C=CCN1C(=O)/C(=C/c2ccc(OCC(=O)OC)cc2)S/C1=N\c1cccc(C(=O)O)c1`, the inhibition turned out to be 19.9%. Next, `CCN1C(=O)/C(=C/c2ccccc2OCc2ccccc2)S/C1=N\c1cccc(C(=O)O)c1`: 59.3%; `CN1C(=O)/C(=C/c2cnccc2C(F)(F)F)S/C1=N\c1cccc(C(=O)O)c1`: 34.4%; `CCN1C(=O)/C(=C/c2ccccc2)S/C1=N\c1cccc(C(=O)O)c1`: 39.3%.

`CN1C(=O)/C(=C/c2ccccn2)S/C1=N\c1cccc(C(=O)O)c1` yielded an inhibition of 64.4%. Next, `CCN1C(=O)/C(=C/c2ccc(N(C)C)cc2)S/C1=N\c1cccc(C(=O)O)c1`: 52.4%. Next, `CCN1C(=O)/C(=C/c2ccc(Cl)cc2Cl)S/C1=N\c1cccc(C(=O)O)c1`: 45.4%; `CN1C(=O)/C(=C/c2cccc(O)c2)S/C1=N\c1cccc(C(=O)O)c1`: 56.8%. Next, `C=CCN1C(=O)/C(=C/c2ccccc2OCC(=O)OC)S/C1=N\c1cccc(C(=O)O)c1`: 38.6%; `Cc1ccc(/C=C2\S/C(=N\c3cccc(C(=O)O)c3)N(C)C2=O)cc1`: 45.6%. `CCN1C(=O)/C(=C/c2cccc(O)c2)S/C1=N\c1cccc(C(=O)O)c1` returned an inhibition of 52.8%. `CCN1C(=O)/C(=C/c2c[nH]c3ccccc23)S/C1=N\c1cccc(C(=O)O)c1` gave an inhibition of 61.9%.

On to `C=CCN1C(=O)/C(=C/c2ccc(OCC(=O)OC)cc2)S/C1=N\c1cccc(C(C)=O)c1`, for which the inhibition came to 10.9%. Next, `CCN1C(=O)/C(=C/c2ccco2)S/C1=N\c1cccc(C(=O)O)c1`: 29.2%; `CCN1C(=O)/C(=C/c2ccccc2OC)S/C1=N\c1cccc(C(=O)O)c1`: 59.5%. Next, `CN1C(=O)/C(=C/c2ccccc2Br)S/C1=N\c1cccc(C(=O)O)c1`: 50.5%; `C=CCN1C(=O)/C(=C/c2ccccc2OCC(=O)O)S/C1=N\c1cccc(C(=O)O)c1`: 25.4%; `COC(=O)COc1ccccc1/C=C1\S/C(=N\c2cccc(C(=O)O)c2)N(C)C1=O`: 56.3%.

`Cc1ccccc1/C=C1\S/C(=N\c2cccc(C(=O)O)c2)N(C)C1=O` displayed an inhibition of 57.4%. Consider `CCCCN1C(=O)/C(=C/c2ccc(O)cc2)S/C1=N\c1cccc(C(=O)O)c1`, for which the inhibition turned out to be 78.5%.

Regarding `CCN1C(=O)/C(=C/c2ccc(F)cc2)S/C1=N\c1cccc(C(=O)O)c1`, the inhibition was 68.3%. The molecule `CCN1C(=O)/C(=C/c2ccc(Cl)c(Cl)c2)S/C1=N\c1cccc(C(=O)O)c1` showed an inhibition of 37.8%. Next, `CCN1C(=O)/C(=C/c2ccc(OCC(=O)O)cc2)S/C1=N\c1cccc(C(=O)O)c1`: 36.9%; `CCN1C(=O)/C(=C/c2ccccc2O)S/C1=N\c1cccc(C(=O)O)c1`: 53.2%. Next, `CCN1C(=O)/C(=C/c2ccc(OC)cc2)S/C1=N\c1cccc(C(=O)O)c1`: 56.2%; `C=CCN1C(=O)/C(=C/c2ccc(OCC(=O)O)cc2)S/C1=N\c1cccc(C(=O)O)c1`: 1.4%. Molecule `CCN1C(=O)/C(=C/c2ccc([N+](=O)[O-])cc2)S/C1=N\c1cccc(C(=O)O)c1` came in with an inhibition of 32.7%. Next, `CCCN1C(=O)/C(=C/c2ccc(OCC(=O)OC)cc2)S/C1=N\c1cccc(C(C)=O)c1`: 0%; `CC(C)N1C(=O)/C(=C/c2ccc(OCC(=O)O)cc2)S/C1=N\c1cccc(C(=O)O)c1`: 12.6%; `CC(C)N1C(=O)/C(=C/c2ccccc2OCC(=O)O)S/C1=N\c1cccc(C(=O)O)c1`: 18.5%. Next, `CN1C(=O)/C(=C/c2ccc([N+](=O)[O-])cc2)S/C1=N\c1cccc(C(=O)O)c1`: 51.8%; `COC(=O)COc1ccc(/C=C2\S/C(=N\c3cccc(C(=O)O)c3)N(C(C)C)C2=O)cc1`: 0%; `C=CCN1C(=O)/C(=C/c2ccc(OCC(=O)O)cc2)S/C1=N\c1cccc(C(C)=O)c1`: 0%. In turn, `COC(=O)COc1ccc(/C=C2\S/C(=N\c3cccc(C(C)=O)c3)N(C(C)C)C2=O)cc1` came in with an inhibition of 7.4%. Molecule `CCCCN1C(=O)/C(=C/c2ccc(O)cc2)S/C1=N\c1cccc(C(C)=O)c1` registered an inhibition of 25.1%. Next, `CN1C(=O)/C(=C/c2ccc(Cl)c(Cl)c2)S/C1=N\c1cccc(C(=O)O)c1`: 60%. Next, `CCN1C(=O)/C(=C/c2ccccc2Cl)S/C1=N\c1cccc(C(=O)O)c1`: 43.3%; `CC(C)c1ccc(/C=C2\S/C(=N\c3cccc(C(=O)O)c3)N(C)C2=O)cc1`: 54%; `CCCCN1C(=O)/C(=C/c2ccc(OCC(=O)OC)cc2)S/C1=N\c1cccc(C(=O)O)c1`: 16.4%.

In turn, `CN1C(=O)/C(=C/c2ccco2)S/C1=N\c1cccc(C(=O)O)c1` had an inhibition of 30.1%. As for `CN1C(=O)/C(=C/c2ccc(Br)cc2)S/C1=N\c1cccc(C(=O)O)c1`, the inhibition was determined as 70.5%. `CN1C(=O)/C(=C/c2ccc[nH]2)S/C1=N\c1cccc(C(=O)O)c1`: the inhibition stood at 58.4%. Next, `CC(=O)c1cccc(/N=C2\S/C(=C\c3ccc(O)cc3)C(=O)N2C(C)C)c1`: 8.2%; `CCCN1C(=O)/C(=C/c2ccc(O)cc2)S/C1=N\c1cccc(C(C)=O)c1`: 10.7%. Next, `CN1C(=O)/C(=C/c2ccccc2Cl)S/C1=N\c1cccc(C(=O)O)c1`: 54.6%; `CCN1C(=O)/C(=C/c2ccc(OCC(=O)O)cc2)S/C1=N\c1cccc(C(C)=O)c1`: 10%. `CN1C(=O)/C(=C/c2ccccc2)S/C1=N\c1cccc(C(=O)O)c1`: the inhibition was 52.2%. Next, `CN1C(=O)/C(=C/c2ccc(C(F)(F)F)cc2)S/C1=N\c1cccc(C(=O)O)c1`: 72.1%. Next, `C=CCN1C(=O)/C(=C/c2ccc(O)cc2)S/C1=N\c1cccc(C(C)=O)c1`: 28.9%; `CN1C(=O)/C(=C/c2ccccc2OCc2ccccc2)S/C1=N\c1cccc(C(=O)O)c1`: 44.8%; `CCN1C(=O)/C(=C/c2ccc(O)c(OC)c2)S/C1=N\c1cccc(C(=O)O)c1`: 75.6%. Next, `Cc1cccc(/C=C2\S/C(=N\c3cccc(C(=O)O)c3)N(C)C2=O)c1`: 49.6%. `CN1C(=O)/C(=C/c2cccc(C(F)(F)F)c2)S/C1=N\c1cccc(C(=O)O)c1` had an inhibition of 26.1%.

The molecule `CCN1C(=O)/C(=C/c2cc(OC)c(OC)c(OC)c2)S/C1=N\c1cccc(C(=O)O)c1` returned an inhibition of 37.4%. Next, `CCCN1C(=O)/C(=C/c2ccc(OCC(=O)O)cc2)S/C1=N\c1cccc(C(=O)O)c1`: 0%. Next, `CCCCN1C(=O)/C(=C/c2ccc(OCC(=O)O)cc2)S/C1=N\c1cccc(C(=O)O)c1`: 0%.

For `CCN1C(=O)/C(=C/c2ccccc2OCC(=O)OC)S/C1=N\c1cccc(C(=O)O)c1`, the inhibition was found to be 31%. Next, `CCCN1C(=O)/C(=C/c2ccc(OCC(=O)O)cc2)S/C1=N\c1cccc(C(C)=O)c1`: 0%; `CCN1C(=O)/C(=C/c2ccc[nH]2)S/C1=N\c1cccc(C(=O)O)c1`: 32.5%; `CCN1C(=O)/C(=C/c2ccc(Cl)cc2)S/C1=N\c1cccc(C(=O)O)c1`: 54.4%.

Consider `CCN1C(=O)/C(=C/c2cnccc2C(F)(F)F)S/C1=N\c1cccc(C(=O)O)c1`, for which the inhibition came out at 46%. Next, `CN1C(=O)/C(=C/c2ccccc2O)S/C1=N\c1cccc(C(=O)O)c1`: 62.7%. In the case of `CC(=O)c1cccc(/N=C2\S/C(=C\c3ccc(OCC(=O)O)cc3)C(=O)N2C(C)C)c1`, the inhibition amounted to 10.2%. `CN1C(=O)/C(=C/c2ccc(Cl)cc2)S/C1=N\c1cccc(C(=O)O)c1` displayed an inhibition of 59.7%. For `CCN1C(=O)/C(=C/c2ccccn2)S/C1=N\c1cccc(C(=O)O)c1`, the inhibition is 38.7%. Next, `CCCCN1C(=O)/C(=C/c2ccc(OCC(=O)O)cc2)S/C1=N\c1cccc(C(C)=O)c1`: 24.1%; `CCN1C(=O)/C(=C/c2ccc(C)cc2)S/C1=N\c1cccc(C(=O)O)c1`: 41.7%. Next, `CN1C(=O)/C(=C/c2c[nH]c3ccccc23)S/C1=N\c1cccc(C(=O)O)c1`: 73.5%; `CCN1C(=O)/C(=C/c2ccccc2C)S/C1=N\c1cccc(C(=O)O)c1`: 47%. Next, `CCN1C(=O)/C(=C/c2ccccc2OCC(=O)O)S/C1=N\c1cccc(C(=O)O)c1`: 15.9%; `CN1C(=O)/C(=C/c2ccc(Cl)cc2Cl)S/C1=N\c1cccc(C(=O)O)c1`: 57.4%; `CCCN1C(=O)/C(=C/c2ccc(OCC(=O)OC)cc2)S/C1=N\c1cccc(C(=O)O)c1`: 0%.
